This note sets out measurements from US8309739B2, “Chemical compounds” (Syngenta Limited, priority 2005, dated 2012).

Molecules are shown by their SMILES. Read-outs that look alike come from different tables or passages of the source.

Data set [1] deals with Myzus persicae (Green Peach Aphid). The data set can be described thus: Myzus persicae test, roots of infested pea seedlings placed in test solution. In kind it is in vivo. Particulars: 144 h, read-out: control of Myzus persicae. An excerpt:
Myzus persicae (Green Peach Aphid):
Roots of pea seedlings, infested with an aphid population of mixed ages, were placed directly in the test solutions of 24 ppm. 6 days after introduction, samples were checked for mortality.

Data set [2] deals with Heliothis virescens (Tobacco Budworm). The data set can be described thus: Heliothis virescens egg/larva test on artificial diet in 24-well microtiter plate. In kind it is in vivo. Particulars: 96 h, 200 ppm by pipetting on eggs (0-24 h old) on artificial diet, 4 days, egg mortality, larval mortality, growth regulation. The text has this: Heliothis virescens (Tobacco Budworm):

The mark [3] stands for this setting: roots of infested pea seedlings in test solutions of 24 ppm, 6 days, mortality.

The melting point is the temperature of the solid-liquid transition. On to `Fc1ccc2c(c1)CCC2NC1=NCCS1` (stereo not shown), for which the melting point is 136 °C.
For the compound `Cc1ccc2c(c1)C(NC1=NCCS1)CC2` (stereo not shown), the melting point was 181 °C.
In the case of `Oc1cccc2c1CCC2NC1=NCCS1` (stereo not shown), the melting point was 191 °C.
`Fc1ccc2c(c1F)CCC2NC1=NCCS1` (stereo not shown) showed a melting point of 161 °C.
`CC1(C)CC(NC2=NCCS2)c2ccccc21` (stereo not shown) gave a melting point of 60 to 66 °C.
In the case of `COc1cc2c(cc1C)CCC2NC1=NCCS1` (stereo not shown), the melting point was in the range of 152 to 153 °C.
As for `Fc1c(F)c(F)c2c(c1F)CCC2NC1=NCCS1` (stereo not shown), the melting point worked out at 165 °C.
On the same count and under the same terms, as for `CCc1cc(F)c2c(c1)C(NC1=NCCS1)CC2` (stereo not shown), the figure is 148 to 149 °C; as for `COC(=O)c1cccc2c1CCC2NC1=NCCS1` (stereo not shown), 131 °C.
On the same count and under the same terms, next, `Ic1cccc2c1CCC2NC1=NCCS1` (stereo not shown): 170 to 171 °C; `O=Cc1cccc2c1CCC2NC1=NCCS1` (stereo not shown): 142 to 143 °C.
`Cc1cccc2c1CCC2NC1=NCCS1` (stereo not shown) [Compound 2.006, (4,5-Dihydro-thiazol-2-yl)-(4-methyl-indan-1-yl)-amine]: the pest or weed control at 24 ppm in data set [1] was ≥ 80%.
With `Fc1cccc2c1CCC2NC1=NCCS1` (stereo not shown) [Compound 2.019], in data set [1] (setting [3]), the pest or weed control at 24 ppm was ≥ 80%. Also, the pest or weed control at 200 ppm in data set [2] is ≥ 80%.
As to `Clc1cccc2c1CCC2NC1=NCCS1` (stereo not shown) [Compound 2.020], the pest or weed control at 200 ppm in data set [2] is ≥ 80%.
`Fc1cc(F)c2c(c1)C(NC1=NCCS1)CC2` (stereo not shown) [Compound 2.024]: the pest or weed control at 24 ppm in data set [1] (setting [3]) is ≥ 80%. Further, the pest or weed control at 200 ppm in data set [2] is ≥ 80%.
`Fc1ccc(F)c2c1CCC2NC1=NCCS1` (stereo not shown) [Compound 2.025]: the pest or weed control at 24 ppm in data set [1] (setting [3]) is ≥ 80%. Further, the pest or weed control at 200 ppm in data set [2] was ≥ 80%.
As to `Fc1cc(Br)cc2c1CCC2NC1=NCCS1` (stereo not shown) [Compound 2.026], the pest or weed control at 200 ppm in data set [2] is ≥ 80%.
For `Fc1cc2c(c(F)c1F)CCC2NC1=NCCS1` (stereo not shown) [Compound 2.028], in data set [2], the pest or weed control at 200 ppm is ≥ 80%.
Consider `Fc1cc(F)c2c(c1F)C(NC1=NCCS1)CC2` (stereo not shown) [Compound 2.030], for which, in data set [1] (setting [3]), the pest or weed control at 24 ppm is ≥ 80%. The pest or weed control at 200 ppm in data set [2] is ≥ 80%.
Turning to `Cc1cc(F)c2c(c1)C(NC1=NCCS1)CC2` (stereo not shown) [Compound 2.031], the pest or weed control at 24 ppm in data set [1] (setting [3]) was ≥ 80%. Besides, in data set [2], the pest or weed control at 200 ppm is ≥ 80%.
`CCCC1(CCC)Cc2ccccc2C1NC1=NCCS1` (stereo not shown) [Compound 2.034] displayed a melting point of 101 to 103 °C.
In turn, `c1ccc(Oc2cccc3c2CCC3NC2=NCCS2)cc1` (stereo not shown) [Compound 2.041] gave a melting point of 143 to 146 °C.
On the same count and under the same terms, as for `O=[N+]([O-])c1cccc2c1CCC2NC1=NCCS1` (stereo not shown) [Compound 2.042], the figure is 144 to 145 °C.
On to `Brc1ccc2c(c1)C(NC1=NCCS1)CC2` (stereo not shown) [Compound 2.049], for which the pest or weed control at 200 ppm in data set [2] is ≥ 80%.
In the case of `Fc1cccc2c1C(NC1=NCCS1)CC2` (stereo not shown) [Compound 2.052], the pest or weed control at 200 ppm in data set [2] was ≥ 80%.
Take `FC(F)c1cccc2c1CCC2NC1=NCCS1` (stereo not shown) [Compound 2.058]: the pest or weed control at 24 ppm in data set [1] (setting [3]) was ≥ 80%. For the same compound, the pest or weed control at 200 ppm in data set [2] is ≥ 80%.
Consider `Fc1cccc2c1CC(F)C2NC1=NCCS1` (stereo not shown) [Compound 2.067], for which the pest or weed control at 24 ppm in data set [1] (setting [3]) was ≥ 80%. In addition, the pest or weed control at 200 ppm in data set [2] was ≥ 80%.
`ON(C1=NCCS1)C1CCc2c(Cl)cccc21` (stereo not shown) [Compound 7.001]: the melting point was in the range of 115 to 117 °C.
Still for that read-out and setting: as for `CC(C)(C)OC(=O)NN(C1=NCCS1)C1CCc2ccccc21` (stereo not shown) [Compound 7.002], the figure is 63 to 64 °C; as for `CC(=O)N(C(C)=O)N(C1=NCCS1)C1CCc2ccccc21` (stereo not shown) [Compound 7.004], 91 to 92 °C.
Regarding `ON(C1=NCCS1)C1CCc2c(F)cccc21` (stereo not shown) [Compound 7.006], the pest or weed control at 24 ppm in data set [1] (setting [3]) was ≥ 80%.
Take `Cc1cccc2c1CCC2N(O)C1=NCCS1` (stereo not shown) [Compound 7.010]: in data set [2], the pest or weed control at 200 ppm was ≥ 80%.
Compound `NN(C1=NCCS1)C1CCc2ccccc21` (stereo not shown) [Compound 7.013] displayed a melting point of 103 to 105 °C.
In the case of `N#CN1CCSC1=NC1CCc2ccccc21` (stereo not shown) [Compound 8.017, 2-(Indan-1-ylimino)-thiazolidine-3-carbonitrile], the pest or weed control at 200 ppm in data set [2] is ≥ 80%.
As to `CC(C)C(=O)N1CCS/C1=N\C1CCc2ccccc21` (stereo not shown) [Compound 10.006], in data set [1] (setting [3]), the pest or weed control at 24 ppm was ≥ 80%.
Regarding `CCC(=O)N1CCS/C1=N\C1CCc2ccccc21` (stereo not shown) [Compound 10.011], in data set [1] (setting [3]), the pest or weed control at 24 ppm was ≥ 80%. Moreover, the pest or weed control at 200 ppm in data set [2] is ≥ 80%.
For `COC(=O)N1CCS/C1=N\C1CCc2ccccc21` (stereo not shown) [Compound 10.015], the pest or weed control at 24 ppm in data set [1] (setting [3]) was ≥ 80%. In data set [2], the pest or weed control at 200 ppm was ≥ 80%.
As to `CCOC(=O)N1CCS/C1=N\C1CCc2ccccc21` (stereo not shown) [Compound 10.020], the pest or weed control at 200 ppm in data set [2] is ≥ 80%.
Still for that read-out and setting: next, `CC(=O)N1CCS/C1=N\C1CCc2ccccc21` (stereo not shown) [Compound 10.025]: ≥ 80%.
As for `CC(=O)OC1Cc2ccccc2C1NC1=NCCS1` (stereo not shown) [Compound 12.008], in data set [2], the pest or weed control at 200 ppm is ≥ 80%.
